These results are taken from US5177112A, “Substituted 2-aminotetralins” (Whitby Research, Inc., priority 1991, dated 1993).

Like-named read-outs stand apart in the source and are kept apart here. Some results are limits rather than exact numbers.

One assay deals with T1, D2 receptors (Bos taurus, UniProt P20288).
T1 construct: The caudate nuclei were dissected out and homogenized in Buffer A; from tissue; host or cells: bovine caudate nuclei membranes (brains from a local slaughterhouse)
Put plainly: D2 receptor specific binding, [3H]-Spiperone. Also on record: species or system bovine. Conditions: for Ki: bovine caudate nuclei, [3H]-Spiperone, 30 nM ketanserin, 75 minutes at room temperature; for increase in selectivity for D2 receptors: compared to the thienyl compound. Here is the method:
(§1) Dopamine receptor assays: Specific binding studies to test the affinity of the compounds for D1, D2 and α2 receptors were conducted using bovine caudate nuclei prepared as follows:
(§2) Bovine brains were obtained fresh from a local slaughterhouse. The caudate nuclei were dissected out and homogenized in Buffer A (50 mM Tris; 1 mM Na2 -EDTA; 5 mM KCl; 1 mM MgCl2; 2 mM CaCl2; pH 7.4) using a Brinkman Polytron. The homogenate was centrifuged at 40,000×g for 20 minutes and washed once. The pellett was resuspended in Buffer A, incubated at 37° C. for 15 minutes, then centrifuged. The pellet was washed once more, resuspended to a protein concentration of 5-10 mg/ml in Buffer A and frozen at -70° C. until used.
(§3) The following tritiated drugs were used as radioligands in the binding studies:
[^3 H]-Spiperone 21-24 Ci/mmol for D2 receptors
(§4) [^3 H]-spiperone, [^3 H]-SCH22390, and [^3 H]-ketanserin were obtained from New England Nuclear, Boston, Me.
(§5) The radioligands were incubated with various concentrations of competing drug and the appropriate membrane source for 75 minutes at room temperature for D2 receptors, 15 minutes at 37° C. for D1 receptors, or 30 minutes at room temperature for α2 receptors. Specific binding was defined using 1 μM butaclamol (D2), 1 μM SCH23390 (D1), or 1 μM yohimbine (α2). In addition the D2 assays contained 30 nM ketaserin in order to block the binding of ^3 H-spiperone to 5HT2 receptors. The assays were terminated by filtration using a 24-port Brandell cell harvester over filters that had been previously soaked in 0.1% polyethyleneimine, and the filters were washed three times by filtration of cold buffer. […] The results are presented as Ki values if the data were best fitted to a one-site model, or as KH and KL values if a two-site model produced the better fit.

The target of the next assay is T2, D1 receptors (Bos taurus, UniProt Q95136).
T2 construct: The caudate nuclei were dissected out and homogenized in Buffer A; from tissue; host or cells: bovine caudate nuclei membranes (brains from a local slaughterhouse)
T2 sequence (Q95136 whole entry): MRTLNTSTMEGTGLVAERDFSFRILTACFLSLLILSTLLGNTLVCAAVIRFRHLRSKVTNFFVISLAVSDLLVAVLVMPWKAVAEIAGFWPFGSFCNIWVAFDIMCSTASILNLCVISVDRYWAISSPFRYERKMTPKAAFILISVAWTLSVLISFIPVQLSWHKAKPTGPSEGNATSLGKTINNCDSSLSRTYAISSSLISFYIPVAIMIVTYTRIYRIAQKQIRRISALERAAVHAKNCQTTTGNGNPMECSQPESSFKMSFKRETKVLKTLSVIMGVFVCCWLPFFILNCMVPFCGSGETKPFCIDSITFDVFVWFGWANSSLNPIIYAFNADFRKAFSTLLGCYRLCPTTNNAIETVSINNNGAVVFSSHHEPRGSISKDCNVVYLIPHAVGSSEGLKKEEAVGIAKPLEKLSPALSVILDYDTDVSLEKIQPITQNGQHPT
Put plainly: D1 receptor specific binding, [3H]-SCH23390. Further details: species or system bovine. The method, then: as §1, §2, §3, §4, §5

The next assay addresses T3, α2-adrenergic receptors (Rattus norvegicus, UniProt P22909).
T3 construct: from tissue; host or cells: cerebral cortex membranes of male Sprague Dawley rats
T3 sequence (P22909 1-465): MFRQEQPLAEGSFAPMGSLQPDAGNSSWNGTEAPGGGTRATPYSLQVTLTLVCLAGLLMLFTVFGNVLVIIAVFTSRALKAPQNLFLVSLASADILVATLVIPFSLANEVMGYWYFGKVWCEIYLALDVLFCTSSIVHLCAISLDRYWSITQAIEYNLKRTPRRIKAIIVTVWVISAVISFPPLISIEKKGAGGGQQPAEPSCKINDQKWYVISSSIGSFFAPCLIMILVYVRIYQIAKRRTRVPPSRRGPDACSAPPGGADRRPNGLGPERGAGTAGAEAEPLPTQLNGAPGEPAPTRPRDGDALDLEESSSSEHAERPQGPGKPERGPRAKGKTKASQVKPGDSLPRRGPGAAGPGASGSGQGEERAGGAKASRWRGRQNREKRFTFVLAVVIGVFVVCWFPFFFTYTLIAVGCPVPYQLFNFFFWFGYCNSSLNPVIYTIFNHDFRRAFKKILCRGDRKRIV
Put plainly: α2-adrenergic receptor specific binding, [3H]-Para aminoclonidine. The method, then: as §1
α2-adrenergic receptors assays were conducted using the rat cerebral cortex prepared as follows:
Male Sprague Dawley rats were killed by decapitation and the brains removed. The cerebral cortices were homogenized in 50 mM Tris; 2 mM MgCl2 (pH 7.4), and centrifuged at 40,000×g for 10 minutes. The pellet was washed once, resuspended in Tris/MgCl2 and incubated with 8 units/ml adenosine deaminase at 37° C. for 30 minutes. The homogenate was centrifuged, washed once, resuspended to a protein concentration of 5-10 mg/ml and frozen at -70° C. until use.
as §3
[^3 H]-Para aminoclonidine 48-52 Ci/mmol for α2 -adrenergic receptors.
[^3 H]-paraaminoclonidine was obtained from Amersham, Arlington Heights, Ill. Yohimbine was obtained from Sigma Chemical Co., St. Louis, Mo.
as §5

The target in assay [1] is T4, D-2 dopamine receptor (Bos taurus, UniProt P20288). Description: displacement of specific D-2 dopamine receptor binding of tritiated racemic 2-(N-propyl-N-2-thienylethylamino)-5-hydroxytetralin. Further details: homogenates of calf brain corpus striatum; from tissue; host or cells: calf brain corpus striatum homogenate; species or system calf. The method, then:
The pharmacological activity of the product of Example 2 was determined by examining its ability to displace the specific D-2 dopamine receptor binding of a tritium-containing racemic mixture of 2-(N-propyl-N-2-thienylethylamino)-5-hydroxytetralin to homogenates of calf brain corpus striatum.

The next assay addresses T5, D-1 dopamine receptor (Bos taurus, UniProt Q95136).
T5 construct: membranes isolated from the striatum of bovine brain; from tissue; host or cells: bovine brain striatum membranes
Put plainly: displacement of tritium labeled SCH 23390 at the D-1 dopamine receptor, striatum membranes. Format: binding. Conditions: bovine brain striatum membranes. Here is the method:
The activity at the D-1 dopamine receptor was tested by the method described in Raisman et al. Eur. J. Pharmacol 113: (1985), pp. 467-468, which utilizeds membranes isolated from the striatum of bovine brain. […] Thus, the 1C50 value for the compound of Example 2 is >100,000 at the D-1 receptor.

The test system of another assay is ocular function. Conditions: in vivo; cited from earlier work.
Assay [2] concerns the target T4, D-2 dopamine receptor. The conditions noted are these: stated for contrast, no test data given; cited from earlier work.
For assay [3], the system named is intraocular pressure. The conditions noted are these: man; eyedrops; cited from earlier work.
Assay [4] deals with intraocular pressure. Conditions: rabbits; cited from earlier work.
The test system of assay [5] is intraocular pressure. The conditions noted are these: monkeys; cited from earlier work.
Setting [6] is: bovine caudate nuclei, [3H]-SCH23390, 15 minutes at 37° C., read-out: Ki D1.
[7] abbreviates: rat cerebral cortex, [3H]-Para aminoclonidine, 30 minutes at room temperature, read-out: Ki α2.

T4 sequence (P20288 whole entry): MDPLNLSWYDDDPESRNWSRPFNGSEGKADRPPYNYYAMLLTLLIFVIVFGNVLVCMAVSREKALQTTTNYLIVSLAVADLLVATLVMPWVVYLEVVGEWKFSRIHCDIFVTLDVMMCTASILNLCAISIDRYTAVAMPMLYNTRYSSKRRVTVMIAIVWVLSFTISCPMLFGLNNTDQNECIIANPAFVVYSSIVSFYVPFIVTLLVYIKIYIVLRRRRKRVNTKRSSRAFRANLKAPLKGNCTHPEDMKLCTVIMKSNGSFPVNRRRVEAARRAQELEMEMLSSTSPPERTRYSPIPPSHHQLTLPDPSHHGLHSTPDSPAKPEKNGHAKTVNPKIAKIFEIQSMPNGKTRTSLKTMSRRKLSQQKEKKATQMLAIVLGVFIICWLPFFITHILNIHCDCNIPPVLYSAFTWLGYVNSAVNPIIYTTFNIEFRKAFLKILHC
T1 sequence (P20288 whole entry): as above
T5 sequence (Q95136 whole entry): as the sequence (Q95136 whole entry) above

As to `CCCN(CCc1cccs1)C1CCc2c(O)cccc2C1` (centres unmarked), the Ki (usually a measure of affinity in units of concentration, obtained from inhibition or displacement) on D2 receptors was determined as 110 nM; at D1 receptors, 1000 nM; at α2-adrenergic receptors it was 190 nM.

Consider `CCCN(CCc1csc2ccccc12)C1CCc2c(O)cccc2C1` (centres unmarked), for which the inhibition constant Ki turned out to be 130 nM on D2 receptors, 1950 nM at D1 receptors (setting [6]) and 250 nM on α2-adrenergic receptors (setting [7]). For the same compound, the “increase in selectivity for D2 receptors” value on D2 receptors is “two-fold”.

With `CCCN(CCc1ccc2ccccc2c1)C1CCc2c(O)cccc2C1` (centres unmarked), the results for the Ki at D2 receptors, on D1 receptors (setting [6]) and at α2-adrenergic receptors (setting [7]) were 80 nM, 6460 nM and 2500 nM, respectively. Besides, on D2 receptors, the “increase in selectivity for D2 receptors” value was “six and a half-fold”.

With `CCCN(CCc1cccs1)C1CCc2c(O)cccc2C1` (racemic) [2-(N-propyl-N-2-thienylethylamino)-5-hydroxytetralin], the Kd (commonly the constant that tells how readily two partners part at equilibrium) on D-2 dopamine receptor [1] was 1.6 nM. The bmax at D-2 dopamine receptor [1] (tritium-containing racemic mixture, calf brain corpus striatum homogenates) is 26.0 picomoles/gm.

With `CCCN(CCc1cc2ccccc2s1)C1CCc2c(O)cccc2C1` (centres unmarked) [Example 2, 2-(N-n-propyl-N-2-[2-benzothienyl]ethylamino)-5-hydroxytetralin], the IC50 on D-1 dopamine receptor (D-1, tritium labeled SCH 23390, read-out: 1C50 value at the D-1 receptor) was > 100000 nM; at D-2 dopamine receptor [1] (D-2, calf brain corpus striatum homogenates, read-out: IC50 (concentration of drug required to inhibit the binding of labelled drug by 50 percent)), 0.56 nM. Further, the “displacement of tritium labeled SCH 23390” value on D-1 dopamine receptor (concentration range 10^-11 to 10^-4 moles) is reported as “did not displace”. Further, at D-2 dopamine receptor [1] (comparison of D-2 and D-1 binding), the “D-2 as opposed to D-1 binding selectivity” value is listed as “extremely selective D-2 as opposed to D-1 binding”.

With `CCCN(CCC)CCc1ccc(O)c(O)c1` [N,N-di-n-propyldopamine], the “alteration of ocular function” value in the assay on ocular function is reported as “may alter ocular function”.

Turning to `CN(C)CCc1ccc(O)c(O)c1` [N,N-dimethyl-dopamine], the “alteration of ocular function” value in the assay with ocular function is “may alter ocular function”.

For the compound `CNCCc1ccc(O)c(O)c1` [N-methyldopamine], in the assay on ocular function, the “alteration of ocular function” value is “may alter ocular function” and the “mechanism: aqueous humor formation” value was “suppressing aqueous humor formation”.

Turning to `CN1CCc2cccc3c2[C@H]1Cc1ccc(O)c(O)c1-3` [apomophine], the “binding at the D-1 and D-2 receptor (comparison substances)” value on D-2 dopamine receptor [2] is “substantially equivalent binding at the D-1 and D-2 receptor”.

With `CC(C)C[C@H]1C(=O)N2CCC[C@H]2[C@]2(O)O[C@](NC(=O)[C@@H]3C=C4c5cccc6[nH]c(Br)c(c56)C[C@H]4N(C)C3)(C(C)C)C(=O)N12` [bromocriptine], the intraocular pressure entry with intraocular pressure [3] was “may lower intraocular pressure”; in the assay with intraocular pressure [4], “lower the intraocular pressure of rabbits”.

As for `NCCc1ccc(O)c(O)c1` [dopamine], the “binding at the D-1 and D-2 receptor (comparison substances)” value on D-2 dopamine receptor [2] is “substantially equivalent binding at the D-1 and D-2 receptor”.

For the compound `CN1C[C@H](CC#N)C[C@@H]2c3cccc4[nH]c(Cl)c(c34)C[C@H]21` [lergotrile], the intraocular pressure entry is on record as “lowered the intraocular pressure of monkeys” in the assay on intraocular pressure [5] and “lower the intraocular pressure of rabbits” in the assay on intraocular pressure [4].

For the compound `CCCN1C[C@H](CSC)C[C@@H]2c3cccc4[nH]cc(c34)C[C@H]21` [pergolide], the figures for the intraocular pressure entry in the assay on intraocular pressure [5] and in the assay with intraocular pressure [4] were “lowered the intraocular pressure of monkeys” and “lower the intraocular pressure of rabbits”, respectively.
